Where no end group is shown, it is not given here.
Experiments:
IAPP = target: T1, IAPP (Homo sapiens, UniProt P10997); assay: Kinetic assay of IAPP fibre formation (ThT fluorescence), in solution or catalysed by LUVs; format: biochemical; details: 10 μM IAPP, 630 μM LUVs, IAPP:small molecule 1:1
T1 construct: purchased Genscript; Elim Biopharmaceuticals
T1 sequence (P10997 34-70 limits assumed): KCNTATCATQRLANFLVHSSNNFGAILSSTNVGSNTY
Method: Unless otherwise stated, LUVs used in this work were prepared from a 1:1 mixture of DOPG/DOPC. The lyophilized mixture was hydrated in 100 mM KCl, 50 mM sodium phosphate, and pH 7.4 for 20 minutes. A 20 mg/mL solution of lipid in buffer was passed 21 times through a polycarbonate membrane (pore diameter=100 nm).
Amyloid reactions were conducted in buffer containing liposome (630 μM lipid) and 20 μM ThT in a black 96-well plate. This was followed by addition of small molecule dissolved in DMSO (final DMSO concentration=0.5%, v/v). […] The final volume in each well was 200 μL. Kinetics of fibrillation was monitored by ThT fluorescence (Ex 450 nm and Em 485 nm) using a FluoDia T70 fluorescence plate reader (Photon Technology International, Edison, NJ, USA). […] Each kinetic trace was fit to a sigmoidal form:

[1] = tested on: Src and its homologue, Abl; details: background statement; cited from earlier work
INS-1 cells = assay: Cell viability (Cell-Titer Blue), IAPP induced toxicity and rescue; format: cell-based, rat; details: 13 μM IAPP; for rescue of IAPP induced toxicity, co-addition: 1:1 IAPP:ligand co-added, 48 h
Method: Rat insulinoma INS-1 cells (832/13, Dr. Gary W. Cline, Department of Internal Medicine, Yale University) were cultured at 37° C. and 5% CO2 in phenol red free RPMI 1640 media supplemented with 10% fetal bovine serum, 1% penicillin/streptomycin (Life Technologies, Carlsbad, CA, USA), and 2% INS-1 stock solution (500 mM HEPES, 100 mM L-glutamine, 100 mM sodium pyruvate, and 2.5 mM β-mercaptoethanol). Cells were passaged upon reaching ˜95% confluence (0.25% Trypsin-EDTA, Life Technologies), propagated, and/or used in experiments. Cells used in experiments were pelleted and resuspended in fresh media with no Trypsin-EDTA.
Cell viability was measured colourimetrically using the Cell-Titer Blue (CTB, Promega, Madison, WI, USA) fluorescence-based assay. Cells were plated at a density 5000 cells/well in 96-well plates (BD Biosciences, San Diego, CA). Peptide was directly introduced to each well after 48 h of culture and then further incubated for an additional 48 h. For time dependent experiments, cells were incubated with peptide for the specified time points. After the incubation period, 20 μL CTB reagent was added to each well and incubated at 37° C. and 5% CO2 for 2.5-3.5 h. Fluorescence of the resorufin product was measured on a FluoDia T70 fluorescence plate reader (Photon Technology International, Birmingham, NJ, USA). All wells included the same amount of water to account for different concentrations of peptide added to sample wells. Wells that included water vehicle but not peptide served as the negative control (0% toxic), and wells containing 10% DMSO were the positive control (100% toxic). Percent toxicity was calculated using the following equation: […]
Each independent variable is the average of eight plate replicates from the negative control (<N>), positive control (<P>), and samples (<S>). Results presented for viability experiments are an average of three such experiments conducted independently on different days. Error bars represent the standard error of the mean.

IAPP20-29 = target: T2, IAPP20-29 (Homo sapiens, UniProt P10997); assay: Amyloid assembly kinetics of the 10-residue peptide IAPP20-29; format: biochemical; details: 200 μM IAPP20-29
T2 construct: the 10-residue sub-peptide, IAPP20-29
Method: Amyloid reactions were conducted in buffer containing liposome (630 μM lipid) and 20 μM ThT in a black 96-well plate. This was followed by addition of small molecule dissolved in DMSO (final DMSO concentration=0.5%, v/v). Fibre formation was initiated by addition of IAPP stock solution. The final volume in each well was 200 μL. Kinetics of fibrillation was monitored by ThT fluorescence (Ex 450 nm and Em 485 nm) using a FluoDia T70 fluorescence plate reader (Photon Technology International, Edison, NJ, USA). The data were blank subtracted and renormalized to the maximum intensity of reactions containing only IAPP. Each kinetic trace was fit to a sigmoidal form:
[formula] where I is the fluorescence intensity, t is time, and b, m, and r are dependent fitting variables. All samples were run at least in triplicate and error bars shown in the text represent ±one standard deviation. Transmission Electron Microscopy

| Compound | effect on liposome catalysed fibrillation (IAPP) | rescue of IAPP induced toxicity, co-addition (INS-1 cells) | further results |
| --- | --- | --- | --- |
| COC(=O)c1cc(OCC(=O)O)c2cccc(NC(=O)c3cc(OCC(=O)O)c4cccc(NC(=O)c5cc(OCC(=O)O)c6cccc(NC(=O)c7cc(OCC(=O)O)c8cccc(NC(=O)c9cc(OCC(=O)O)c%10cccc([N+](=O)[O-])c%10n9)c8n7)c6n5)c4n3)c2c1 [ADM-118] |  |  | inhibition of liposome catalysed fibrillation, t50 relative to control (IAPP): 3.3±0.1 fold |
| Cc1ccc(NC(=O)c2ccc(CN3CCN(C)CC3)cc2)cc1Nc1nccc(-c2cccnc2)n1 [Gleevec] |  |  | difference in binding affinity between Src and Abl [1]: > 1,000 fold |
| IAPP: 37-residue, C-terminally amidated human islet amyloid polypeptide (SEQ ID NO:1) (KCNTATCATQRLANFLVHSSNNFGAILSSTNVGSNTY-NH2; cysteine pairing not given here) |  |  | decrease of INS-1 viability (INS-1 cells; 48 h incubation): 78±8% |
| IAPP20-29: 10-residue sub-peptide of IAPP, residues 20-29 (SNNFGAILSS; Islet amyloid polypeptide; UniProt P10997 53-62, looked up, fragment) |  |  | t50 of amyloid formation (IAPP20-29): 6.6 ± 0.3 h |

Second part, led by results:

| effect on liposome catalysed fibrillation (IAPP) | Compound | rescue of IAPP induced toxicity, co-addition (INS-1 cells) | further results |
| --- | --- | --- | --- |
| no detectable effect | acid fuchsin | ineffective in rescuing toxicity |  |
| no detectable effect | Oc1ccc(C=Cc2cc(O)cc(O)c2)cc1 [resveratrol] | ineffective in rescuing toxicity |  |
| no detectable effect | O=C(O[C@@H]1Cc2c(O)cc(O)cc2O[C@@H]1c1cc(O)c(O)c(O)c1)c1cc(O)c(O)c(O)c1 [EGCG] | ineffective in rescuing toxicity |  |
